Patent US10159640B2, “Prebiotic oral care compositions containing amino acids” (COLGATE-PALMOLIVE COMPANY, priority 2013, dated 2018)

Tests used:
[1] = system: beneficial oral bacteria and pathogenic oral bacteria; assay: Extent of growth, whole panel: prebiotic effect; type: cell-based; conditions: threshold value of 1.25
From the text: Substrates that were able to increase the growth (or maximal growth density or extent of growth) of at least one of the above beneficial bacteria while not or only minimally increasing the growth (or maximal growth density) of the pathogenic bacteria are considered to be prebiotic compounds.
The extent of growth of the tested bacteria in response to selected compounds (Met-Pro, Phe-Glu) was investigated by setting up growth curves in a nutritionally rich medium (brain heart infusion broth (BHI), Oxoid), over 48 hours. Late exponential growth phase liquid cultures were prepared by transferring the respective bacterium from blood agar plates to BHI and overnight incubation at 37° C. in an anaerobic atmosphere for A. viscosus, V. parvula, F. nucleatum, P. gingivalis, P. intermedia, T. forsythia, A. naeslundii, and C. sputigena, and in a 5% CO2 environment for S. salivarius, S. sanguinis, S. mitis, A. actinomycetemcomitans, S. mutans, S. sobrinus and S. gordonii. Overnight cultures were transferred to BHI and adjusted to a concentration of 1×10^7 CFU/ml (colony forming units per ml) by measuring the optical density at 600 nm (OD600) (BioRad SmartSpec 3000). For each strain, 200 μl of the bacterial suspension was added to a 96-well plate containing 20 μl of the respective di-peptides. Final concentrations of the di-peptides were set to 5, 10, 20 and 25 μmol/ml. […] Plates were incubated as previously described.
For each combination of bacterium/dipeptide, and for each of their respective controls (i.e. the particular bacterium in the nutritionally rich medium with no dipeptide), the optical density was measured at 630 nm (OD630) at 0 h, 24 h and 48 h (Thermo Scientific Multiskan Ascent). Additionally, the OD630 for combinations of bacterium/dipeptide grown in a 5% CO2 environment were also measured every hour between 0 h and 9 h.
The experiment was carried out on three different days (thus providing 3 biological replicas) and on each day the experiment was carried out in quadruple (thus providing 4 technical replicas) for each combination of bacterium with dipeptide and for each control. For each day and for each combination, the average (mean) of the values obtained (as detailed above) for the four technical replicas was calculated to provide a single value for each combination on each day. The values shown in Tables 5 to 6, below, are the average (mean) of the three single values obtained for each combination of bacterium with dipeptide.
This value was selected in order to exclude low-stimulating metabolites and avoid false positive results.

[2] = system: beneficial oral bacteria and pathogenic oral bacteria; assay: Metabolic activity, whole panel: prebiotic effect; type: cell-based; conditions: threshold value of 2
Outline: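 Biolog phenotype microarrays with dipeptide-preloaded wells; each species suspended in IF-0 with Redox Dye Mix D (85% transmittance) plus succinate/ferric citrate, incubated anaerobically at 37° C. Tetrazolium reduction read at 492 nm at 24 and 48 h versus no-dipeptide controls; values are means of three biological replicates.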

Met-Pro
exhibited prebiotic effects: prebiotic effects (extent of growth) ([1]; 10 μmol/ml) | prebiotic effects (extent of growth) ([1]; 20 μmol/ml) | prebiotic effects (extent of growth) ([1]; 25 μmol/ml) | prebiotic effects (metabolic activity) ([2]; 24 hrs) | prebiotic effects (metabolic activity) ([2]; 48 hrs)

Phe-Glu
exhibited prebiotic effects: prebiotic effects (extent of growth) ([1]; 5 μmol/ml) | prebiotic effects (extent of growth) ([1]; 10 μmol/ml) | prebiotic effects (metabolic activity) ([2]; 24 hrs) | prebiotic effects (metabolic activity) ([2]; 48 hrs)
